Results on three compounds are retold here after patent publication US20070298111A1, “Fine Particle-Containing Composition and Manufacturing Method Therefor” (EISAI R&D MANAGEMENT CO., LTD., priority 2004, published 2007).

Data set [1] in a line: Solubility of glibenclamide in the presence of both α-CD and SDS. Type of data set: physicochemical. As to conditions: 3 days at room temperature. As to the method: To an aqueous solution (4 mL) containing α-CD and SDS was added glibenclamide (20 mg), which was stirred for 3 days at room temperature. This solution was filtered using a Millex-HV filter (Millipore) with a pore size of 0.45 μm, and the glibenclamide concentration in the filtrate was measured by HPLC using a Unison UK-C18 column (Imtakt).

For data set [2] the following is noted: pharmacopoeia term; cited from earlier work.

As for `COc1ccc(Cl)cc1C(=O)NCCc1ccc(S(=O)(=O)NC(=O)NC2CCCCC2)cc1` [glibenclamide, 4-[2-(5-Chloro-2-methoxybenzoylamino)ethyl](N-cyclohexylcarbamoyl)benzene-sulfonaide], the “Solubility of glibenclamide relative to SDS concentration (FIG. 6)” value is “a bending point appeared indicating minimum solubility” in data set [1] (α-CD added) and “solubility rose as the SDS concentration rose” in data set [1] (α-CD concentration 0.0 mM). The Solubility in water entry in data set [2] is listed as “practically insoluble in water”.

For the compound `CC(=O)S[C@@H]1CC2=CC(=O)CC[C@]2(C)[C@H]2CC[C@@]3(C)[C@@H](CC[C@@]34CCC(=O)O4)[C@H]12` [spironolactone, 7α-acetylsulfanyl-3-oxo-17α-pregn-4-ene-21,17β-carbolactone], the Solubility in water result in data set [2] was “practically insoluble in water”.

`Cc1cccc(Nc2ccccc2C(=O)O)c1C` [mefenamic acid, 2-(2,3-dimethylphenylamino)benzoic acid]: in data set [2], the Solubility in water entry is reported as “practically insoluble in water”.
